What was measured:
[1] = target: T1, 5-HT3A-A6 (M3M4 loop replaced by six alanines) (Mus musculus, UniProt P23979)
T1 sequence (P23979 with tags, fused parts or gaps isoform P23979-2 limits assumed): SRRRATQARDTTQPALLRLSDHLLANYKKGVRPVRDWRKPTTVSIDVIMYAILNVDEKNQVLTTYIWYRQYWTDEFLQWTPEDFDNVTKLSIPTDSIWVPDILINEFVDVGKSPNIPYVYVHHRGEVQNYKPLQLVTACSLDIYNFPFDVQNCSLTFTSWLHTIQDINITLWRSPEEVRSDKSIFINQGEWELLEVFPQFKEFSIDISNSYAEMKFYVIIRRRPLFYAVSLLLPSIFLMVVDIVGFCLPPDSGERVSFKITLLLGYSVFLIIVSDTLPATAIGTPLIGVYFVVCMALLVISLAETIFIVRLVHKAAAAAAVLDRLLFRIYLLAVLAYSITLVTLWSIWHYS
Description: (§1) The mouse 5-HT3A cDNA with an N-terminal V5 epitope tag was cloned into the pXOON vector as previously described, and is referred to in this paper as “wild-type” (WT). The starting construct for all of the M3M4 loop replacement constructs used in this work was the 5-HT3A-ΔM3M4 construct formed by splicing the cytoplasmic end of M3 (M3-LVHK/QDLQRP…) to the cytoplasmic end of M4 (…WLRVGY/VLDRLL-M4). The splice was made at the site of the “/” to yield the sequence M3-LVHK/VLDRLL-M4 [34]. This removed 115 residues predicted to form the M3M4 loop.
(§2) The construction of the 5-HT3A-glvM3M4 chimera with the 5-HT3A M3M4 loop replaced by the GLIC heptapeptide M3M4 loop (SQPARAA) was described previously. Point mutations, alanine and Gly-Ser-Ala insertions into the 5-HT3A-ΔM3M4 construct were generated with the Quikchange site directed mutagenesis procedure (Stratagene, La Jolla, CA). The entire coding region of all mutant constructs was verified by DNA sequencing (Albert Einstein College of Medicine DNA Sequencing Facility). The pXOON plasmid was linearized using NheI and capped mRNA prepared with T7 RNA polymerase (mMessage mMachine, Ambion, Austin, TX).
(§3) Use of Xenopus laevis in this study was carried out in strict accordance with the recommendations in the Guide for the Care and Use of Laboratory Animals of the National Institutes of Health. The protocol was approved by the Albert Einstein College of Medicine Animal Care and Use Committee (Protocol Number: 20081201). All surgery was performed under tricaine anesthesia, and all efforts were made to minimize suffering. Oocyctes were harvested from Xenopus (Nasco Science, Fort Atkinson, WI) anesthetized with 0.15% tricaine. Oocyctes were defolliculated by incubation in 2 mg ml^−1 Type 1A collagenase (Sigma-Aldrich, St. Louis, MO) in OR2 (85 mM NaCl, 2 mM KCl, 1 mM MgCl2, and 5 mM HEPES; pH adjusted to 7.5 with NaOH) for a 60 or 75 min. Oocytes were washed in OR2 and stored at 16°C in SOS medium: 100 mM NaCl, 2 mM KCl, 1 mM MgCl2, 1.8 mM CaCl2 5 mM HEPES, pH 7.5 with 100 IU ml^−1 penicillin, 100 µg ml^−1 streptomycin, and 250 ng ml^−1 amphotericin B (Invitrogen, Carlsbad, CA) and 5% horse serum (Sigma-Aldrich). 24 hrs following isolation, oocyctes were injected with 23 nl (2.3 ng) of mRNA and were kept in SOS media for 2–5 d at 16°C.
(§4) Currents were recorded under two-electrode voltage clamp from oocytes 2–5 d post-injection as described previously. […] The perfusion chamber volume was 200 µl. A 3 M KCl/agar bridge connected the ground electrode to the bath. The holding potential was maintained at −60 mV. […] Salts were purchased from Fisher Scientific (Hampton, NH) or Sigma-Aldrich.
(§5) Desensitization rates were determined by fitting a single exponential decay function to the current data with Prism 4 software (GraphPad Software). Significant differences compared with wild-type were determined by a one-way ANOVA (p<0.05) using Dunnett's multiple comparison post-hoc test (p<0.05). […]

[2] = target: T2, 5-HT3A-A7 (M3M4 loop replaced by seven alanines) (Mus musculus, UniProt P23979)
T2 sequence (P23979 with tags, fused parts or gaps isoform P23979-2 limits assumed): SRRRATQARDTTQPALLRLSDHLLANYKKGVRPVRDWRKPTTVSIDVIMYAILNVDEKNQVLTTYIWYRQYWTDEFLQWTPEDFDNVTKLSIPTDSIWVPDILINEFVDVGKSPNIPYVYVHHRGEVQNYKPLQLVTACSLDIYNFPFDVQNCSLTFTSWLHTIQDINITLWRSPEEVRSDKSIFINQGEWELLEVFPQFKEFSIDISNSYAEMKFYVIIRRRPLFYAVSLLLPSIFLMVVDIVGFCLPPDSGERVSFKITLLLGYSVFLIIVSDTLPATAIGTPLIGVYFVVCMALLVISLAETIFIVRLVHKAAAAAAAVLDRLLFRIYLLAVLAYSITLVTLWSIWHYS
Description: as §1, §2, §3, §4, §5

[3] = target: T3, 5-HT3A M3M4 loop SQPAARA construct (Mus musculus, UniProt P23979); experiment: Two-electrode voltage clamp, oocytes expressing SQPAARA loop construct; format: cell-based; conditions: 10 µM 5-HT, Xenopus oocytes
T3 construct: expressed in transfected cells; host or cells: Xenopus laevis oocytes injected with mRNA
Description: as §1
(§6) The construction of the 5-HT3A-glvM3M4 chimera with the 5-HT3A M3M4 loop replaced by the GLIC heptapeptide M3M4 loop (SQPARAA) was described previously. Point mutations, alanine and Gly-Ser-Ala insertions into the 5-HT3A-ΔM3M4 construct were generated with the Quikchange site directed mutagenesis procedure (Stratagene, La Jolla, CA). […]
(§7) Currents were recorded under two-electrode voltage clamp from oocytes 2–5 d post-injection as described previously. […]
(§8) Desensitization rates were determined by fitting a single exponential decay function to the current data with Prism 4 software (GraphPad Software). Significant differences compared with wild-type were determined by a one-way ANOVA (p<0.05) using Dunnett's multiple comparison post-hoc test (p<0.05). […]

[4] = target: T4, 5-HT3A M3M4 loop SQAPARA construct (Mus musculus, UniProt P23979); experiment: Two-electrode voltage clamp, oocytes expressing SQAPARA loop construct; format: cell-based; conditions: 10 µM 5-HT, Xenopus oocytes
T4 construct: expressed in transfected cells; host or cells: Xenopus laevis oocytes injected with mRNA
Description: as §1, §6, §7, §8

[5] = target: T5, 5-HT3A receptor wild-type (WT, V5-tagged) (Mus musculus, UniProt P23979); experiment: Two-electrode voltage clamp, 5-HT-induced currents in oocytes expressing wild-type 5-HT3A; format: cell-based; conditions: wildtype
T5 construct: unrelated to the structural/functional states accessible to a normal full-length 5-HT3A receptor; expressed in transfected cells; host or cells: Xenopus laevis oocytes injected with mRNA
T5 sequence (P23979 24-483 isoform P23979-2 limits assumed): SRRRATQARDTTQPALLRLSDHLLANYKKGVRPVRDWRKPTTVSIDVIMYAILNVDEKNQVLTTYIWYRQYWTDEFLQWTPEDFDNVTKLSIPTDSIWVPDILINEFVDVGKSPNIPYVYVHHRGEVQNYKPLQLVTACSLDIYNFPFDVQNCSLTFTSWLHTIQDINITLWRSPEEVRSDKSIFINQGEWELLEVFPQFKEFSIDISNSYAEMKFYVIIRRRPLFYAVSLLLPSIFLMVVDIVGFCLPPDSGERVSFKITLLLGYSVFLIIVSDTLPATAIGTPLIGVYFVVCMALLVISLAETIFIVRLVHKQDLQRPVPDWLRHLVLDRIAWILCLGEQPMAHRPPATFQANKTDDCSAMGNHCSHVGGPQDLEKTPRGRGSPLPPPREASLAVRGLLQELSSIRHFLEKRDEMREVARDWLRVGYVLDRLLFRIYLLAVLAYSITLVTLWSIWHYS
Description: The mouse 5-HT3A cDNA with an N-terminal V5 epitope tag was cloned into the pXOON vector as previously described [34], and is referred to in this paper as “wild-type” (WT).
Currents were recorded under two-electrode voltage clamp from oocytes 2–5 d post-injection as described previously [37]. […] The perfusion chamber volume was 200 µl. A 3 M KCl/agar bridge connected the ground electrode to the bath. The holding potential was maintained at −60 mV. […] Salts were purchased from Fisher Scientific (Hampton, NH) or Sigma-Aldrich.
Desensitization rates were determined by fitting a single exponential decay function to the current data with Prism 4 software (GraphPad Software). Significant differences compared with wild-type were determined by a one-way ANOVA (p<0.05) using Dunnett's multiple comparison post-hoc test (p<0.05). […] One way ANOVA (P<0.05) with post hoc Dunnett's Multiple Comparison test was performed using Prism 5.0 (Graphpad software.)

T4 sequence (P23979 with tags, fused parts or gaps): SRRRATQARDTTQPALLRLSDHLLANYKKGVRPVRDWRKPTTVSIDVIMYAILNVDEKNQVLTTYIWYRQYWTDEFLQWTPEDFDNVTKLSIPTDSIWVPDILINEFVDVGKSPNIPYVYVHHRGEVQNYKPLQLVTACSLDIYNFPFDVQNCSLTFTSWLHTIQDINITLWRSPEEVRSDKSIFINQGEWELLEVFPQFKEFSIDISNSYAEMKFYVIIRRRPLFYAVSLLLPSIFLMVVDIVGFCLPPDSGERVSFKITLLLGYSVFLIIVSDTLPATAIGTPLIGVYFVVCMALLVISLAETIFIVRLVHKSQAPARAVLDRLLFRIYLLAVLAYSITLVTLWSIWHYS
T3 sequence (P23979 with tags, fused parts or gaps): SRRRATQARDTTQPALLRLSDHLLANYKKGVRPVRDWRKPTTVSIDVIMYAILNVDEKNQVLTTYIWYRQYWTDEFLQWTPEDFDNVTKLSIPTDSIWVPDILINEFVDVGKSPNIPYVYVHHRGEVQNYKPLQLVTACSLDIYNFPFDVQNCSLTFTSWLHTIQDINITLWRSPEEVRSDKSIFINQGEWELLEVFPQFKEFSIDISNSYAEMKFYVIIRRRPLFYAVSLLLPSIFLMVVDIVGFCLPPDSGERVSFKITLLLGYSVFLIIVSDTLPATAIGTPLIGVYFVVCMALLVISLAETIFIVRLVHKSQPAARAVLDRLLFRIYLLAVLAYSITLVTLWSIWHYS

SMILES: NCCc1c[nH]c2ccc(O)cc12 [5-HT, 5-hydroxytryptamine]
- 10–90% Activation rise time ([1]; 10 µM 5-HT): 1017 ± 23 ms
- Imax (peak current) ([1]; 10 µM 5-HT, Xenopus oocytes, -60 mV): 6400±1100 nA
- Desensitization time constant τ ([1]; prolonged 10 µM 5-HT): 77 ± 6 s
- nH (Hill coefficient) [2]: 3.7±0.8
- 10–90% Activation rise time ([2]; 10 µM 5-HT): 881 ± 110 ms
- Desensitization time constant τ ([2]; prolonged 10 µM 5-HT): 62 ± 4 s
- Peak current [3]: 320±25 nA
- Peak current [4]: 87±30 nA
- 10–90% Activation rise time ([5]; 10 µM 5-HT): 587 ± 51 ms
- Imax (peak current) ([5]; 10 µM 5-HT (saturating), Xenopus oocytes, -60 mV): 7300±700 nA
- Desensitization time constant τ ([5]; prolonged 10 µM 5-HT, Ca-free buffer): 77 ± 18 s

From article PMC3335078, “Length and Amino Acid Sequence of Peptides Substituted for the 5-HT3A Receptor M3M4 Loop May Affect Channel Expression and Desensitization” (PLoS ONE, 2012)
